PubChem BioAssay (NCI)
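Cells were grown in 96-well plates and exposed to each compound for 48 hours at five concentrations; endpoints were interpolated linearly between bracketing concentrations, or set to the highest concentration if not reached. TGI: concentration producing complete growth inhibition.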

Key:
Test in all cases: inhibition of tumour cell growth, NCI panel, 48 h
786-0 renal = system: 786-0 renal
A549 NSCLC = system: A549 NSCLC
ACHN renal = system: ACHN renal
CCRF-CEM leukemia = system: CCRF-CEM leukemia
COLO 205 colon = system: COLO 205 colon
DLD-1 colon = system: DLD-1 colon
DMS 114 small cell lung = system: DMS 114 small cell lung
DMS 273 small cell lung = system: DMS 273 small cell lung
EKVX NSCLC = system: EKVX NSCLC
HCC-2998 colon = system: HCC-2998 colon
HCT-116 colon = system: HCT-116 colon
HCT-15 colon = system: HCT-15 colon
HL-60(TB) leukemia = system: HL-60(TB) leukemia
HOP-18 NSCLC = system: HOP-18 NSCLC
HOP-62 NSCLC = system: HOP-62 NSCLC
HOP-92 NSCLC = system: HOP-92 NSCLC
HT29 colon = system: HT29 colon
IGROV1 ovarian = system: IGROV1 ovarian
K-562 leukemia = system: K-562 leukemia
KM12 colon = system: KM12 colon
KM20L2 colon = system: KM20L2 colon
LOX IMVI melanoma = system: LOX IMVI melanoma
LXFL 529 NSCLC = system: LXFL 529 NSCLC
M14 melanoma = system: M14 melanoma
M19-MEL melanoma = system: M19-MEL melanoma
MALME-3M melanoma = system: MALME-3M melanoma
MOLT-4 leukemia = system: MOLT-4 leukemia
NCI-H226 lung = system: NCI-H226 lung
NCI-H23 lung = system: NCI-H23 lung
NCI-H460 lung = system: NCI-H460 lung
NCI-H522 lung = system: NCI-H522 lung
OVCAR-3 ovarian = system: OVCAR-3 ovarian
OVCAR-5 ovarian = system: OVCAR-5 ovarian
OVCAR-8 ovarian = system: OVCAR-8 ovarian
RPMI-8226 leukemia = system: RPMI-8226 leukemia
RXF 393 renal = system: RXF 393 renal
RXF-631 renal = system: RXF-631 renal
SF-268 CNS = system: SF-268 CNS
SF-295 CNS = system: SF-295 CNS
SF-539 CNS = system: SF-539 CNS
SK-MEL-2 melanoma = system: SK-MEL-2 melanoma
SK-MEL-28 melanoma = system: SK-MEL-28 melanoma
SK-MEL-5 melanoma = system: SK-MEL-5 melanoma
SK-OV-3 ovarian = system: SK-OV-3 ovarian
SN12C renal = system: SN12C renal
SNB-19 CNS = system: SNB-19 CNS
SNB-75 CNS = system: SNB-75 CNS
SNB-78 CNS = system: SNB-78 CNS
SR leukemia = system: SR leukemia
SW-620 colon = system: SW-620 colon
TK-10 renal = system: TK-10 renal
U251 CNS = system: U251 CNS
UACC-257 melanoma = system: UACC-257 melanoma
UACC-62 melanoma = system: UACC-62 melanoma
UO-31 renal = system: UO-31 renal
A498 renal = system: A498 renal
CAKI-1 renal = system: CAKI-1 renal
OVCAR-4 ovarian = system: OVCAR-4 ovarian
XF 498 CNS = system: XF 498 CNS

Measured: TGI

COC(=O)/C=C(\C(=O)OC)c1c2c3c(cc(OC)c(OC)c3c3ccccc13)CCN2C
99.4 µM: IGROV1 ovarian
90.8 µM: K-562 leukemia
74 µM: NCI-H522 lung
50.9 µM: DMS 273 small cell lung
75.4 µM: SF-539 CNS
76.7 µM: HOP-62 NSCLC
89.5 µM: MOLT-4 leukemia
80.7 µM: DMS 114 small cell lung
85.4 µM: CCRF-CEM leukemia
34.3 µM: SK-MEL-5 melanoma
31.7 µM: COLO 205 colon
56.3 µM: HL-60(TB) leukemia
89.7 µM: UACC-257 melanoma
not listed: A498 renal | CAKI-1 renal | OVCAR-4 ovarian | XF 498 CNS
> 100 µM: all other assays above

Cc1cc2c(cc1C)[n+](=O)c(C(=O)C/C(=N/OCCCc1ccccc1)C(=O)Nc1cc(Cl)ccc1Cl)c(C)n2[O-]
86.2 µM: SK-MEL-2 melanoma
not listed: DMS 114 small cell lung | HOP-92 NSCLC | RPMI-8226 leukemia | SR leukemia | UO-31 renal
> 100 µM: all other assays above

COC(=O)C(Cc1cc(OC)c(OC)c(OC)c1)c1ccc(OC)cc1 (stereo unspecified)
not listed: HCC-2998 colon | NCI-H23 lung | SK-MEL-2 melanoma | SK-OV-3 ovarian | SNB-75 CNS | SR leukemia | XF 498 CNS
> 100 µM: all other assays above

CC1CC(=O)Nc2ccccc2N1C(=O)CN1CCC(CCCCN(C)C)CC1 (stereo unspecified)
not listed: HOP-92 NSCLC | SK-OV-3 ovarian | XF 498 CNS
> 100 µM: all other assays above

CCCCCCCCCCCCCC(=O)OCC1OC(n2cc(F)c(=O)[nH]c2=O)C(NC(=O)OCc2ccccc2)C(OC(=O)CCCCCCCCCCCCC)C1O (stereo unspecified)
> 100 µM: all assays above
